# Assays:
# Format in all cases: in vivo
# [1] = tested on: Alopecurus myosuroides (ALOMY); test: Example B pre-emergence herbicidal activity, glasshouse pot test; conditions: 312 h, rate 250 g/ha, evaluated after 13 days, read-out: Pre-emergence activity ALOMY (100=total damage to plant; 0=no damage to plant)
# Procedure, shortened: (§1)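 Glasshouse pot assay: 24/16 °C, 14 h light, 65% humidity, twice-daily watering. Spray timing was 1 day after sowing (pre) or 8 days (post); vehicle acetone/water 50:50 with 0.5% Tween 20. Plants were rated 13 days after treatment, 100 meaning total damage.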
# [2] = tested on: Amaranthus retroflexus (AMARE); test: as above; conditions: 312 h, rate 250 g/ha, evaluated after 13 days, read-out: Pre-emergence activity AMARE (100=total damage to plant; 0=no damage to plant)
# Procedure, shortened: as §1
# Avena fatua (AVEFA) [3] = test: as above; conditions: 312 h, rate 250 g/ha, evaluated after 13 days, read-out: Pre-emergence activity AVEFA (100=total damage to plant; 0=no damage to plant)
# Procedure, shortened: as §1
# [4] = tested on: Echinochloa crus-galli (ECHCG); test: as above; conditions: 312 h, rate 250 g/ha, evaluated after 13 days, read-out: Pre-emergence activity ECHCG (100=total damage to plant; 0=no damage to plant)
# Procedure, shortened: as §1
# Setaria faberi (SETFA) [5] = test: as above; conditions: 312 h, rate 250 g/ha, evaluated after 13 days, read-out: Pre-emergence activity SETFA (100=total damage to plant; 0=no damage to plant)
# Procedure, shortened: as §1
# [6] = tested on: Alopecurus myosuroides (ALOMY); test: Example B post-emergence herbicidal activity, glasshouse pot test; conditions: 312 h, rate 250 g/ha, evaluated after 13 days, read-out: Post-emergence activity ALOMY (100=total damage to plant; 0=no damage to plant)
# Procedure, shortened: as §1
# [7] = tested on: Amaranthus retroflexus (AMARE); test: as above; conditions: 312 h, rate 250 g/ha, evaluated after 13 days, read-out: Post-emergence activity AMARE (100=total damage to plant; 0=no damage to plant)
# Procedure, shortened: as §1
# Avena fatua (AVEFA) [8] = test: as above; conditions: 312 h, rate 250 g/ha, evaluated after 13 days, read-out: Post-emergence activity AVEFA (100=total damage to plant; 0=no damage to plant)
# Procedure, shortened: as §1
# [9] = tested on: Echinochloa crus-galli (ECHCG); test: as above; conditions: 312 h, rate 250 g/ha, evaluated after 13 days, read-out: Post-emergence activity ECHCG (100=total damage to plant; 0=no damage to plant)
# Procedure, shortened: as §1
# Setaria faberi (SETFA) [10] = test: as above; conditions: 312 h, rate 250 g/ha, evaluated after 13 days, read-out: Post-emergence activity SETFA (100=total damage to plant; 0=no damage to plant)
# Procedure, shortened: as §1
Structure (SMILES),pest or weed control at 250 g/ha [1],pest or weed control at 250 g/ha [2],pest or weed control at 250 g/ha (Avena fatua (AVEFA) [3]),pest or weed control at 250 g/ha [4],pest or weed control at 250 g/ha (Setaria faberi (SETFA) [5]),pest or weed control at 250 g/ha [6],pest or weed control at 250 g/ha [7],pest or weed control at 250 g/ha (Avena fatua (AVEFA) [8]),pest or weed control at 250 g/ha [9],pest or weed control at 250 g/ha (Setaria faberi (SETFA) [10])
CCc1ccc(-c2cc(Cl)c(Cl)cc2Cl)cc1C1=C(O)C(C)(C)OC(C)(C)C1=O [Compound A-144],100%,30%,80%,90%,100%,100%,40%,100%,100%,100%
Cc1ccc(-c2ccc(Cl)cc2Cl)cc1C1=C(O)C(C)(C)SC(C)(C)C1=O [Compound C-6],0%,0%,0%,0%,0%,20%,40%,0%,60%,30%
CCc1ccc(-c2ccc(Cl)cc2)cc1C1=C(O)[C@@]2(C)C=C[C@H](O2)C1=O [Compound A-62],20%,0%,20%,0%,60%,70%,0%,70%,100%,100%
CCc1ccc(-c2ccc(Cl)c(F)c2Cl)cc1C1=C(O)C(C)(C)OC(C)(C)C1=O [Compound A-138],90%,20%,90%,100%,100%,100%,60%,100%,100%,100%
CC1(C)OC(C)(C)C(O)=C(c2cc(-c3ccc(Cl)cc3)ccc2Cl)C1=O [Compound A-142],60%,0%,70%,70%,100%,100%,0%,80%,100%,80%
CCc1ccc(-c2ccc(Cl)c(C(F)(F)F)c2)cc1C1=C(O)C(C)(C)OC(C)(C)C1=O [Compound A-67],40%,0%,0%,60%,90%,80%,100%,80%,100%,30%
COc1ccc(-c2ccc(Cl)cc2)cc1C1=C(O)C(C)(C)OC(C)(C)C1=O [Compound A-90],0%,0%,0%,0%,0%,40%,0%,20%,90%,90%
"CCOC[C@]12CC[C@H](O1)C(=O)C(c1cc(-c3ccc(Cl)c(F)c3)ccc1CC)=C2O (single isomer, unassigned) [Compound A-126]",30%,0%,90%,80%,100%,70%,0%,90%,100%,100%
Cc1ccc(-c2c(Cl)cc(Cl)cc2Cl)cc1C1=C(O)C(C)(C)OC(C)(C)C1=O [Compound A-60],0%,0%,0%,20%,20%,20%,60%,0%,80%,80%
CCc1ccc(-c2ccc(Cl)c(Cl)c2)cc1C1=C(O)[C@]2(C)O[C@@H](CC2COC)C1=O (some centres unmarked) [Compound A-130],20%,0%,20%,40%,90%,40%,0%,40%,100%,100%
CCc1ccc(-c2ccc(Cl)cc2C#N)cc1C1=C(O)C(C)(C)OC(C)(C)C1=O [Compound A-100],20%,60%,90%,80%,100%,90%,0%,90%,100%,100%
CCc1ccc(-c2ccc(Cl)cc2Cl)cc1C1=C(O)C(C)(C)S(=O)(=O)C(C)(C)C1=O [Compound C-11],0%,0%,80%,0%,0%,70%,20%,60%,80%,30%
"Cc1ccc(-c2ccc(Cl)c(F)c2)cc1C1=C(O)C(C)(C)SC(C)(C)C1=O (single isomer, unassigned) [Compound C-9]",0%,0%,0%,0%,0%,50%,0%,40%,70%,10%
CCc1ccc(-c2ccc(Cl)cc2OC)cc1C1=C(O)C(C)(C)OC(C)(C)C1=O [Compound A-65],0%,0%,0%,90%,0%,20%,10%,0%,90%,70%
"CC[C@]12CC[C@H](O1)C(=O)C(c1cc(-c3ccc(Cl)cc3)ccc1C)=C2O (single isomer, unassigned) [Compound A-80]",30%,0%,0%,40%,70%,30%,0%,0%,100%,90%
CCc1ccc(-c2ccc(Cl)nc2)cc1C1=C(OC(C)=O)C(C)(C)OC(C)(C)C1=O [Compound D-22],60%,0%,50%,100%,100%,90%,0%,100%,100%,100%
Cc1cc(C)c(-c2ccc(Cl)cc2)c(C)c1C1=C(O)C(C)(C)OC(C)(C)C1=O [Compound A-92],10%,0%,0%,50%,60%,50%,0%,0%,100%,90%

# From patent US8680012B2, “4-phenyl-pyrane-3,5-diones,4-phenyl-thiopyrane-3,6-diones and cyclohexanetriones as novel herbicides” (Syngenta Crop Protection LLC, priority 2006, dated 2014)
